Experimental data as given in US10294228B2, “Breathing control modulating compounds, and methods of making and using same” (NEURAD LTD., priority 2015, dated 2019).

Test: Polymorphic transformation by exposure to humidity
Assay type: physicochemical
Details: >80% humidity, three days, ambient temperature; confirmed by XRPD and DSC
Experimental: Approximately 10 mg of the solid as its initially obtained polymorphic form were placed in a 4 mL open vial. In a 20 mL vial, about 5 mL of distilled water were added and heated to about 50° C., then the vial was capped, and the contents were cooled for about 30 minutes at ambient temperature. Then the 20 mL vial was uncapped, the smaller vial was placed inside the bigger vial, the bigger vial was recapped, and the sample in the smaller vial was exposed and aged in an environment of approximately 80-95% relative humidity at ambient temperature for 3 days. Polymorphic transformation was confirmed by XRPD and DSC vs. that for the initially obtained polymorphic form.

polymorphic transformation on exposure to humidity: converted to form Mal-B (31d-2)
Structure (SMILES): CCCNc1nc(NC)nc2c(NCC(C)(C)O)nc(NC)nc12 [Compound 31d-1, 1-(2,6-Bis-methylamino-8-propylamino-pyrimido[5,4-d]pyrimidin-4-ylamino)-2-methyl-propan-2-ol]
